In the CheMixHub drug solubility set:

Test: xn = mol fraction of the nth substance listed, in the solute-free solvent

CCCCOc1ccc(C(=O)CCN2CCCCC2)cc1.Cl + CCO + CCOC(C)=O
solubility (g/100 g solution)
Details	278.15 K	283.15 K	288.15 K	293.15 K	298.15 K	303.15 K	308.15 K	313.15 K	318.15 K	323.15 K
x2 = 0.1	4.4	5.22	6.12	7.23	8.43	9.93	11.7	13.6	15.8	18.4
x2 = 0.2	6.73	7.77	8.92	10.3	11.8	13.6	15.6	17.8	20.4	23.2
x2 = 0.3	9.22	10.6	12	13.6	15.3	17.3	19.6	22	24.8	27.7
x2 = 0.4	11.9	13.4	15.1	17	18.9	21.2	23.7	26.4	29.3	32.4
x2 = 0.5	14.7	16.5	18.3	20.4	22.6	25.2	27.9	30.8	33.9	37
x2 = 0.6	17.6	19.7	21.7	24.1	26.5	29.3	32.2	35.2	38.4	41.7
x2 = 0.7	20.8	23.2	25.4	28	30.6	33.5	36.6	39.8	43.1	46.5
x2 = 0.8	24.2	26.8	29.2	32	34.7	37.8	41	44.2	47.6	51
x2 = 0.9	27.9	30.7	33.2	36.1	39	42.2	45.5	48.8	52.2	55.5

CC(=O)OC(c1ccccc1)C(Cl)(Cl)Cl (stereo unspecified) + CCO + O
solubility (g/100 g solution)
Details	288.15 K	293.15 K	298.15 K	303.15 K	308.15 K	313.15 K	318.15 K	323.15 K	328.15 K
x2 = 0.4	0.237	0.492	0.787	1.3	1.94	2.85	3.79	4.63	5.65
x2 = 0.5	0.569	0.744	1.1	1.98	2.72	3.4	4.43	6.17	8.15
x2 = 0.6	1.11	1.43	1.77	3.24	4.3	5.43	7.34	9.98	13.9
x2 = 0.7	1.91	2.46	3	4.64	6.14	7.47	9.86	13.2	18
x2 = 0.8	2.52	3.05	4.06	6.07	7.63	9.55	12.1	16.4	21.2
x2 = 0.9	3.42	4.13	5.46	7.3	9.27	11.8	15.2	20	26.4

CCCCOc1ccc(C(=O)CCN2CCCCC2)cc1.Cl + CCO + O
solubility (g/100 g solution)
Details	278.15 K	283.15 K	288.15 K	293.15 K	298.15 K	303.15 K	308.15 K	313.15 K	318.15 K	323.15 K
x2 = 0.1	34.6	37.9	41.1	44.6	48.1	51.6	55.2	58.8	62.2	65.7
x2 = 0.2	33.9	37.1	40.3	43.8	47.1	50.6	54.1	57.7	61.1	64.5
x2 = 0.3	33.4	36.5	39.6	43	46.3	49.8	53.2	56.7	60.1	63.5
x2 = 0.4	33.1	36.1	39.2	42.4	45.7	49	52.4	55.9	59.4	62.7
x2 = 0.5	32.7	35.7	38.8	42	45.1	48.5	51.8	55.3	58.7	62
x2 = 0.6	32.5	35.4	38.4	41.5	44.7	48	51.3	54.7	58.2	61.5
x2 = 0.7	32.2	35.1	38.1	41.2	44.4	47.6	50.9	54.3	57.8	61
x2 = 0.8	32	35	37.9	41	44.1	47.2	50.5	53.9	57.3	60.6
x2 = 0.9	31.9	34.8	37.8	40.7	43.8	47	50.3	53.6	57	60.2

Nc1cncc(Cl)n1 + CCO + O
solubility (g/100 g solution)
Details	278.15 K	283.15 K	288.15 K	293.15 K	298.15 K	303.15 K	308.15 K	313.15 K	318.15 K	323.15 K
x2 = 0.04165	0.0437	0.053	0.0624	0.075	0.0883	0.106	0.124	0.145	0.168	0.197
x2 = 0.08908	0.071	0.0856	0.101	0.12	0.141	0.17	0.198	0.23	0.267	0.313
x2 = 0.1436	0.11	0.132	0.155	0.185	0.217	0.259	0.302	0.35	0.405	0.476
x2 = 0.2068	0.161	0.193	0.226	0.27	0.316	0.376	0.438	0.508	0.588	0.691
x2 = 0.2812	0.21	0.253	0.299	0.358	0.419	0.501	0.589	0.681	0.792	0.934
x2 = 0.3698	0.277	0.332	0.392	0.469	0.548	0.654	0.765	0.889	1.03	1.23
x2 = 0.4772	0.337	0.404	0.479	0.573	0.677	0.806	0.943	1.1	1.28	1.51
x2 = 0.6101	0.374	0.451	0.544	0.654	0.776	0.918	1.08	1.26	1.48	1.77
x2 = 0.7788	0.399	0.482	0.579	0.7	0.826	0.99	1.16	1.38	1.62	1.94

Oc1ccc(Cl)c2cccnc12 + CCOCCO + CCO
solubility (g/100 g solution)
Details	278.15 K	283.15 K	288.15 K	293.15 K	298.15 K	303.15 K	308.15 K	313.15 K	318.15 K	323.15 K
x2 = 0.1134	1.08	1.36	1.64	1.98	2.41	2.88	3.44	4.07	4.85	5.76
x2 = 0.2542	1.61	1.9	2.21	2.69	3.17	3.76	4.43	5.22	6.15	7.04
x2 = 0.434	2.17	2.57	2.99	3.57	4.14	4.77	5.59	6.57	7.64	8.85
x2 = 0.6716	2.81	3.34	3.83	4.5	5.16	6.07	6.97	8.03	9.21	10.5

Nc1cncc(Cl)n1 + CN(C)C=O + O
solubility (g/100 g solution)
Details	278.15 K	283.15 K	288.15 K	293.15 K	298.15 K	303.15 K	308.15 K	313.15 K	318.15 K	323.15 K
x2 = 0.02666	–	–	–	–	–	–	–	–	–	0.136
x2 = 0.05806	–	–	–	–	–	–	–	–	–	0.386
x2 = 0.09556	0.711	0.836	0.963	1.12	1.29	1.5	1.71	1.95	2.21	2.52
x2 = 0.1412	1	1.18	1.36	1.59	1.83	2.13	2.43	2.78	3.15	3.58
x2 = 0.1978	1.13	1.35	1.6	1.86	2.18	2.55	2.94	3.38	3.84	4.38
x2 = 0.27	1.26	1.53	1.81	2.13	2.52	2.94	3.38	3.91	4.51	5.2
x2 = 0.3652	1.39	1.68	2.03	2.4	2.83	3.31	3.89	4.51	5.18	5.97
x2 = 0.4965	1.5	1.85	2.23	2.67	3.17	3.69	4.34	5.06	5.84	6.7
x2 = 0.6893	1.59	1.97	2.39	2.87	3.39	3.97	4.66	5.5	6.38	7.36

O=C(O)c1cc([N+](=O)[O-])ccc1O + CN(C)C=O + O
solubility (g/100 g solution)
Details	278.15 K	283.15 K	288.15 K	293.15 K	298.15 K	303.15 K	308.15 K	313.15 K	318.15 K	323.15 K
x2 = 0.02666	0.182	0.224	0.277	0.352	0.437	0.534	0.645	0.775	0.924	1.1
x2 = 0.05806	0.538	0.682	0.832	1	1.26	1.54	1.85	2.17	2.56	3.01
x2 = 0.09556	1.2	1.45	1.81	2.17	2.65	3.12	3.74	4.38	5.16	6.11
x2 = 0.1412	2.33	2.71	3.27	3.93	4.66	5.53	6.45	7.43	8.54	9.8
x2 = 0.1978	3.78	4.51	5.41	6.42	7.5	8.84	10.3	11.9	13.5	15.4
x2 = 0.27	6.74	7.37	8.61	10.2	11.7	13.4	15.2	17.2	19.3	21.5
x2 = 0.3652	10.9	11.7	12.9	14.8	16.9	19	21.2	23.5	26.2	29.4
x2 = 0.4965	14.7	15.3	16.7	19.3	21.5	24	26.1	29.3	32.3	35.7
x2 = 0.6893	16.7	17.7	19.4	21.5	23.8	26.6	29	31.8	35.4	38.8
